Measured values published in PubChem BioAssay AID652 (University of Pittsburgh Molecular Library Screening Center, 2007).

Molecular target: Gag-Pol polyprotein (Human immunodeficiency virus type 1 group M subtype B (isolate HXB2)) (UniProt P04585)
Experiment: concentration-response of HIV-1 RNase H blockers – biochemical, probe assessment, dose response (AID 652)
Conditions: HIV-1 RT RNase H enzymatic assay

SMILES	IC50 [µM]
CCOC(=O)N1CC=C2C(C#N)=C(N)C(C#N)(C#N)[C@H](c3ccc(OC(C)C)c(OCC)c3)[C@H]2C1	21.7
O=C(COc1ccc(Cl)cc1)Nc1nnc(-c2ccc3c(c2)CCCC3)o1	4.49
C1=C(c2ccc(-c3ccccc3)cc2)Nc2ncnn2C1c1ccco1 (stereo unspecified)	14.5
CCOc1ccc(N2Cc3ccccc3C2)cc1	7.36

Same assay, conditions: HIV-1 RT RNase H enzymatic assay, inhibition, at 50 µM, stronger effect = higher value

SMILES	inhibition [%]
COc1cccc(-c2nnc(NC(=O)c3ccc(S(=O)(=O)N(CC(C)C)CC(C)C)cc3)o2)c1	84.4
COCCSc1ccccc1C(=O)Nc1cc(C)on1	65.1
CCOC(=O)N1CC=C2C(C#N)=C(N)C(C#N)(C#N)[C@H](c3ccc(OC(C)C)c(OCC)c3)[C@H]2C1	98.5
COc1ccc(C2c3c(oc4ccc(Cl)cc4c3=O)C(=O)N2Cc2ccco2)cc1OC (stereo unspecified)	95.9
CCC1(C)Cc2c(sc3c2c(=O)n(C)c2nnc(SCc4ccc5c(c4)OCO5)n32)CO1 (stereo unspecified)	96.2
Cc1cc(NC(=O)CSc2ccc(-c3nc4cc(C)c(C)cc4[nH]3)cn2)no1	83
Cc1cc(C)c2oc(-c3ccc(Cl)c(NC(=O)c4ccc(C#N)cc4F)c3)nc2c1	91
O=C(COc1ccc(Cl)cc1)Nc1nnc(-c2ccc3c(c2)CCCC3)o1	83.7
N#Cc1c(N)nc(SCC(=O)NC2CCCCC2)c(C#N)c1-c1ccc(Cl)cc1	64.2
Cc1cc(C)c2c(=O)n(CC(=O)N3CCC(N4CCCCC4)CC3)sc2n1	60.1
CCOC(=O)CSc1nc2cc(C(=O)NCc3ccco3)ccc2c(=O)n1C1CCCCC1	89
Cc1sc(-n2c(C)cc(/C=N/n3cnnc3)c2C)c(C#N)c1C	89.5
CC1(C)Cc2[nH]c(=S)c(C#N)cc2CO1	71.1
O=C(NCc1ccco1)c1cccnc1-c1nc2ccccc2s1	93.7
Cc1ccc(NC(=O)Cn2nnc(C(=O)Nc3ccc(C)c(C)c3)c2N)cc1	76.8
O=c1ccc2cc3c([nH]c4ccc(Br)cc43)oc-2c1O	88.5
CCOC(=O)c1c(N)sn(-c2ccccc2C)c1=S	83.4
C1=C(c2ccc(-c3ccccc3)cc2)Nc2ncnn2C1c1ccco1 (stereo unspecified)	48.6
Cc1cccc(C)c1NC(=O)CSCC(=O)c1ccc(O)c(O)c1	94.7
O=c1[nH]c(=O)n(-c2ccc(F)cc2)c(O)c1C=Nc1ccccc1N1CCCC1	83.7
Cc1cccc(NC(=O)Cn2c(C)c(C#N)c3ccccc32)c1C	89

SMILES	inhibition [%]
COCCn1c(-c2ccc(-c3ccccc3Cl)o2)nc2c1c(=O)[nH]c(=O)n2CC(C)C	85
Cc1cc(C)c(NC(=O)Cn2c(=O)n(Cc3ccco3)c(=O)c3ccccc32)c(C)c1	76.8
CCc1ccccc1N1CSC2=C(C#N)C(c3cc(OC)c(OC)cc3OC)CC(=O)N2C1 (stereo unspecified)	98.3
CCOc1cc(C2c3c(oc4cc(C)c(Cl)cc4c3=O)C(=O)N2Cc2ccco2)ccc1O (stereo unspecified)	76.5
CCOC(=O)C1CCCN(C(=O)Cn2sc3nc(C)cc(C)c3c2=O)C1 (stereo unspecified)	69.6
O=C(NC(=O)c1ccc(Cl)cc1)Nc1cc(N2CCCCC2)ncn1	97.4
c1csc(-c2nn3c(C4COc5ccccc5O4)nnc3s2)c1 (stereo unspecified)	97.1
O=S(=O)(c1ccc(S(=O)(=O)N2CCN(C/C=C/c3ccccc3)CC2)cc1)N1CCCC1	96.9
Cc1ccnc(-n2sc3ccccc3c2=O)n1	96.7
Cc1cc(C)c(C#N)c(=N)o1	83
COc1ccc(N2CSC3=C(C#N)C(c4cc(OC)ccc4OC)CC(=O)N3C2)c(OC)c1 (stereo unspecified)	93.9
CC1=C(SCCC#N)S/C(=C2\SC(C)=C(SCCC#N)S2)S1	97.5
CCOC(=O)CSc1nc2cc(C(=O)NCc3ccco3)ccc2c(=O)n1-c1ccc(F)cc1	91.8
CN1CCN(C(=O)c2sc(=S)n(-c3ccccc3)c2N)CC1	73.1
Cc1cc(C(=O)CSc2nnc(-c3ccc(OC(F)F)cc3)o2)c(C)n1Cc1cccs1	74.6
C=CCn1c(N)c(C(=O)NCCC2=CCCCC2)sc1=S	85.9
c1cncc(-c2nn3c(Cn4cnc5ccccc54)nnc3s2)c1	85.4
CCOc1ccc(N2Cc3ccccc3C2)cc1	80
S=c1nc(C2CC2)[nH]c2ccccc12	97.1
CCC(C)Sc1nc2c(c(=O)[nH]c(=O)n2C)n1CC(O)COc1cccc2ccccc12 (stereo unspecified)	95
COc1ccc(N2CSC3=C(C#N)C(c4ccc(OC)c(OC)c4)CC(=O)N3C2)c(OC)c1 (stereo unspecified)	79.7
